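Interpolation was linear, between the two tested concentrations surrounding the appropriate level; five concentrations were tested over 48 hours in 96-well plates. GI50 is the concentration that inhibits growth by half.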 The source made the active and inactive calls. No stated cut-off is given here; in the data, active = GI50 up to about 1.1 µM and inactive = higher.
Key:
Experiment in all cases: growth of human tumour cells (NCI), 48 h
IGROV-1 = tested on: IGROV-1
MDA-N = tested on: MDA-N
OVCAR-5 = tested on: OVCAR-5
MOLT-4 = tested on: MOLT-4
Malme-3M = tested on: Malme-3M
MDA-MB-231 = tested on: MDA-MB-231
U-251 = tested on: U-251
OVCAR-4 = tested on: OVCAR-4
NCI-H460 = tested on: NCI-H460
T47D = tested on: T47D
TK-10 = tested on: TK-10
SR = tested on: SR
LOX IMVI = tested on: LOX IMVI
SK-OV-3 = tested on: SK-OV-3
SNB-19 = tested on: SNB-19
HCT-116 = tested on: HCT-116
A549 = tested on: A549
NCI/ADR-RES = tested on: NCI/ADR-RES
RXF 393 = tested on: RXF 393
ACHN = tested on: ACHN

SMILES | GI50 (IGROV-1) | GI50 (MDA-N) | GI50 (OVCAR-5) | GI50 (MOLT-4) | GI50 (Malme-3M) | GI50 (MDA-MB-231) | GI50 (U-251) | GI50 (OVCAR-4) | GI50 (NCI-H460) | GI50 (T47D) | GI50 (TK-10) | GI50 (SR) | GI50 (LOX IMVI) | GI50 (SK-OV-3) | GI50 (SNB-19) | GI50 (HCT-116) | GI50 (A549) | GI50 (NCI/ADR-RES) | GI50 (RXF 393) | GI50 (ACHN)
C/C(=N\NC(=S)NC(C)(C)C)c1nc2cccnc2[nH]1 | 3.06 µM (inactive) | 7.38 µM (inactive) | 1.14 µM (inactive) | 2.13 µM (inactive) | 4.49 µM (inactive) | 3.55 µM (inactive) | 1.15 µM (inactive) | 0.634 µM (active) | 3.03 µM (inactive) | 0.427 µM (active) | 7.35 µM (inactive) | 4.9 µM (inactive) | 3.4 µM (inactive) | 3.08 µM (inactive) | 6.93 µM (inactive) | 3.59 µM (inactive) | 3.29 µM (inactive) | 3.03 µM (inactive) | 4.92 µM (inactive) | 2.82 µM (inactive)
CN(C)P(=O)(Oc1ccc(CC(NC(=O)OCc2ccccc2)C(=O)OCc2ccccc2)cc1)N(C)C (stereo not given) | 17.2 µM (inactive) | 16.8 µM (inactive) | 20 µM (inactive) | 3.35 µM (inactive) | 17.3 µM (inactive) | 17.5 µM (inactive) | 13.8 µM (inactive) | 20.7 µM (inactive) | 21 µM (inactive) | 21 µM (inactive) | 21.7 µM (inactive) | 4.56 µM (inactive) | 16 µM (inactive) | 17.8 µM (inactive) | 20 µM (inactive) | 15.9 µM (inactive) | 19.2 µM (inactive) | 17.9 µM (inactive) | 17.5 µM (inactive) | 18.5 µM (inactive)
O=C1c2c(F)c(F)c(F)c(F)c2SC2=NCCN12 | 7.19 µM (inactive) | 3.45 µM (inactive) | 15.4 µM (inactive) | 2.24 µM (inactive) | 5.65 µM (inactive) | 8.75 µM (inactive) | 8.87 µM (inactive) | 3.12 µM (inactive) | 6.53 µM (inactive) | 12.5 µM (inactive) | 8.69 µM (inactive) | 1.15 µM (inactive) | 1.61 µM (inactive) | 15.3 µM (inactive) | 15.3 µM (inactive) | 2.15 µM (inactive) | 14.7 µM (inactive) | 10.4 µM (inactive) | 2.47 µM (inactive) | 8.41 µM (inactive)
Nc1nc(Cl)cc(NCC2(CO)CCC2)n1 | > 100 µM (inactive) | > 100 µM (inactive) | > 100 µM (inactive) | > 100 µM (inactive) | > 100 µM (inactive) | > 100 µM (inactive) | > 100 µM (inactive) | > 100 µM (inactive) | > 100 µM (inactive) | 29.7 µM (inactive) | > 100 µM (inactive) | > 100 µM (inactive) | > 100 µM (inactive) | > 100 µM (inactive) | > 100 µM (inactive) | > 100 µM (inactive) | > 100 µM (inactive) | > 100 µM (inactive) | > 100 µM (inactive) | > 100 µM (inactive)
O=C1CC[N+]2=Cc3ccccc3O[B-]2(c2ccccc2)O1 (stereo not given) | > 100 µM (inactive) | > 100 µM (inactive) | > 100 µM (inactive) | > 100 µM (inactive) | > 100 µM (inactive) | > 100 µM (inactive) | > 100 µM (inactive) | > 100 µM (inactive) | > 100 µM (inactive) | > 100 µM (inactive) | > 100 µM (inactive) | > 100 µM (inactive) | > 100 µM (inactive) | > 100 µM (inactive) | > 100 µM (inactive) | > 100 µM (inactive) | > 100 µM (inactive) | > 100 µM (inactive) | > 100 µM (inactive) | > 100 µM (inactive)
O=C1CCCc2cc3c(cc21)CC1(C3)Cc2cc3c(cc2C1)C(=O)CCC3 | 1.38 µM (inactive) | 0.214 µM (active) | 4.54 µM (inactive) | 1 µM (active) | 0.798 µM (active) | 3.16 µM (inactive) | 1.64 µM (inactive) | 4.43 µM (inactive) | 1.22 µM (inactive) | 9.48 µM (inactive) | 1.81 µM (inactive) | 0.106 µM (active) | 1.48 µM (inactive) | 3.52 µM (inactive) | 4.58 µM (inactive) | 0.706 µM (active) | 1.39 µM (inactive) | 0.769 µM (active) | 1.45 µM (inactive) | 2.86 µM (inactive)
CNc1nc2c(C)ccc3nc(N(C)C)[nH]c3c-2n1 | 47.8 µM (inactive) | 33.8 µM (inactive) | 74.8 µM (inactive) | 32.7 µM (inactive) | 31.1 µM (inactive) | 43.6 µM (inactive) | 58.3 µM (inactive) | 19.5 µM (inactive) | 26.2 µM (inactive) | 46.6 µM (inactive) | > 100 µM (inactive) | 43.8 µM (inactive) | 31.7 µM (inactive) | 21.1 µM (inactive) | 15.3 µM (inactive) | 38.9 µM (inactive) | 39.9 µM (inactive) | 77.1 µM (inactive) | 25.7 µM (inactive) | 15.2 µM (inactive)
CSC1=C(C)S/C(=C\c2ccc(/C=C3\SC(C)=C(SC)S3)cc2)S1 | > 100 µM (inactive) | > 100 µM (inactive) | > 100 µM (inactive) | > 100 µM (inactive) | > 100 µM (inactive) | > 100 µM (inactive) | 79.8 µM (inactive) | > 100 µM (inactive) | > 100 µM (inactive) | > 100 µM (inactive) | 89.3 µM (inactive) | > 100 µM (inactive) | > 100 µM (inactive) | > 100 µM (inactive) | > 100 µM (inactive) | > 100 µM (inactive) | > 100 µM (inactive) | > 100 µM (inactive) | 21.6 µM (inactive) | > 100 µM (inactive)
CC(C)=NOC(=O)CNC(=O)C(Cc1ccccc1)NC(=O)C(C)NC(=O)OC(C)(C)C (stereo not given) | > 100 µM (inactive) | > 100 µM (inactive) | > 100 µM (inactive) | > 100 µM (inactive) | > 100 µM (inactive) | > 100 µM (inactive) | > 100 µM (inactive) | > 100 µM (inactive) | > 100 µM (inactive) | > 100 µM (inactive) | > 100 µM (inactive) | > 100 µM (inactive) | > 100 µM (inactive) | > 100 µM (inactive) | > 100 µM (inactive) | > 100 µM (inactive) | > 100 µM (inactive) | > 100 µM (inactive) | > 100 µM (inactive) | > 100 µM (inactive)
Cc1[nH]n(C2=NCCN2)c(=O)c1Cc1ccccc1 | > 100 µM (inactive) | > 100 µM (inactive) | > 100 µM (inactive) | > 100 µM (inactive) | > 100 µM (inactive) | > 100 µM (inactive) | > 100 µM (inactive) | > 100 µM (inactive) | > 100 µM (inactive) | > 100 µM (inactive) | > 100 µM (inactive) | > 100 µM (inactive) | > 100 µM (inactive) | > 100 µM (inactive) | > 100 µM (inactive) | > 100 µM (inactive) | > 100 µM (inactive) | > 100 µM (inactive) | > 100 µM (inactive) | > 100 µM (inactive)
N#Cc1c(N)nc(Sc2ccccc2N)c(C#N)c1-c1ccc(Cl)cc1 | 5.52 µM (inactive) | 9.91 µM (inactive) | 27.1 µM (inactive) | 1.37 µM (inactive) | 6.61 µM (inactive) | 9.77 µM (inactive) | 7.59 µM (inactive) | 17.8 µM (inactive) | 9.46 µM (inactive) | 0.368 µM (active) | 13.7 µM (inactive) | 1 µM (active) | 4.45 µM (inactive) | 12 µM (inactive) | 14.3 µM (inactive) | 6.81 µM (inactive) | 9.4 µM (inactive) | 6.4 µM (inactive) | 16 µM (inactive) | 10.7 µM (inactive)
O=C1OC(CCCN2CCCCC2)(c2ccccc2)CC12CCCC2 (stereo not given) | > 100 µM (inactive) | > 77.6 µM (inactive) | > 87.1 µM (inactive) | 40 µM (inactive) | 35.6 µM (inactive) | > 75.9 µM (inactive) | > 100 µM (inactive) | 97.9 µM (inactive) | 89.1 µM (inactive) | > 100 µM (inactive) | > 100 µM (inactive) | 34.4 µM (inactive) | > 72.1 µM (inactive) | > 100 µM (inactive) | > 100 µM (inactive) | 73.1 µM (inactive) | > 100 µM (inactive) | > 100 µM (inactive) | 80 µM (inactive) | > 100 µM (inactive)
Cc1ccc(C)n1-n1c(-c2ccccc2)n[nH]c1=O | > 100 µM (inactive) | 24.8 µM (inactive) | > 100 µM (inactive) | > 100 µM (inactive) | > 100 µM (inactive) | > 100 µM (inactive) | > 100 µM (inactive) | > 100 µM (inactive) | > 100 µM (inactive) | > 100 µM (inactive) | > 100 µM (inactive) | 51.9 µM (inactive) | > 100 µM (inactive) | > 100 µM (inactive) | > 100 µM (inactive) | > 100 µM (inactive) | > 100 µM (inactive) | > 100 µM (inactive) | > 100 µM (inactive) | > 100 µM (inactive)
Cc1cc(C)nc(NS(=O)(=O)c2ccc(NNc3c4ccccc4nc4c(C(=O)Nc5ccc(S(=O)(=O)Nc6cc(C)on6)cc5)cccc34)cc2)n1 | 29 µM (inactive) | 44.2 µM (inactive) | 23.9 µM (inactive) | 32.5 µM (inactive) | 53.7 µM (inactive) | 33.1 µM (inactive) | 26.7 µM (inactive) | 46.3 µM (inactive) | 40.9 µM (inactive) | 33.5 µM (inactive) | 54.1 µM (inactive) | 24.9 µM (inactive) | 32.3 µM (inactive) | 29 µM (inactive) | 48 µM (inactive) | 31.3 µM (inactive) | > 100 µM (inactive) | > 100 µM (inactive) | 44.1 µM (inactive) | 31.3 µM (inactive)
